Measurements taken from patent US20230085307A1, “PYRIDAZINONE COMPOUND AND HERBICIDE” (NISSAN CHEMICAL CORPORATION, priority 2019, published 2023).

Legend:
velvetleaf [1] = assay: Test Example 5: herbicidal effect by foliage application, plastic box (Table 20, symbol M); assay type: in vivo, velvetleaf (Abutilon theophrasti); details: 320 g/ha, foliage application after 14-day growth, evaluated three weeks after application
Procedure, shortened: (§1)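 Sow seeds spot-wise in sterilized diluvial soil; cover with ~1.5 cm soil. Grow 14 days in greenhouse, 25° C. to 30° C. Spray foliage with emulsion diluted to predetermined amount. Rate effect after 3 weeks.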

barnyard grass = assay: Test Example 3: herbicidal effect by foliage application, Wagner pot (Table 18, symbol H); assay type: in vivo, barnyard grass (Echinochloa crus-galli); details: 320 g/ha
Procedure, shortened: (§2)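 Plants were sown in alluvial soil held under 0.1–0.5 cm standing water and grown 14 days in a greenhouse at 25–30 °C. An emulsifiable formulation, water-diluted to the set dose, was then sprayed onto the foliage, and effects were scored three weeks later using previously defined criteria.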

chickweed = assay: Test Example 4: herbicidal effect by soil treatment (Table 19, symbol P); assay type: in vivo, common chickweed (Stellaria media); details: amount of applied herbicide 320 g/ha
Procedure, shortened: (§3)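 Applied as a water-diluted emulsion, the compound was sprayed onto soil covering newly sown seeds. Evaluation came three weeks after application, in a greenhouse held at 25° C. to 30° C.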

persian speedwell [2] = assay: Test Example 4: herbicidal effect by soil treatment (Table 19, symbol R); assay type: in vivo, Persian speedwell (Veronica persica); details: amount of applied herbicide 320 g/ha
Procedure, shortened: as §3

velvetleaf [3] = assay: Test Example 4: herbicidal effect by soil treatment (Table 19, symbol M); assay type: in vivo, velvetleaf (Abutilon theophrasti); details: amount of applied herbicide 320 g/ha
Procedure, shortened: as §3

windgrass [4] = assay: Test Example 4: herbicidal effect by soil treatment (Table 19, symbol L); assay type: in vivo, windgrass (Apera spica-venti); details: amount of applied herbicide 320 g/ha
Procedure, shortened: as §3

late watergrass = assay: Test Example 2: herbicidal activity, application during weed generation under submerged conditions (Table 17, symbol A); assay type: in vivo, late watergrass (Echinochloa oryzicola); details: AAH 320 g/ha; application during weed generation, submerged conditions
Procedure, shortened: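 In this pot test, flooded alluvial soil (water depth 4 cm) holds all three species sown as a mixture. Once seedlings have one to two leaves, the compound's emulsion, thinned with water to the intended dose, is poured on the water; grading follows after three weeks on the earlier criteria.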

Chinese sprangletop = assay: Test Example 3: herbicidal effect by foliage application, Wagner pot (Table 18, symbol D); assay type: in vivo, chinese sprangletop (Leptochloa chinensis); details: 320 g/ha
Procedure, shortened: as §2

oval-leafed pondweed = assay: Test Example 1: herbicidal activity, application before weed generation under submerged conditions (Table 16, symbol C); assay type: in vivo, oval-leafed pondweed (Monochoria vaginalis); details: amount of applied herbicide 320 g/ha
Procedure, shortened: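 Alluvial soil was flooded to 4 cm depth, weed seeds were sown mixed and 2.5-leaf rice seedlings were transplanted. On sowing day, the compound's emulsion, diluted in water to a set dose, was applied to the water surface. Plants grew at 25–30 °C and were scored 0–5 after three weeks.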

southern crabgrass = assay: Test Example 5: herbicidal effect by foliage application, plastic box (Table 20, symbol F); assay type: in vivo, southern crabgrass (Digitaria ciliaris); details: 320 g/ha, foliage application after 14-day growth, evaluated three weeks after application
Procedure, shortened: as §1

lambsquarters [5] = assay: Test Example 5: herbicidal effect by foliage application, plastic box (Table 20, symbol O); assay type: in vivo, lambsquarters (Chenopodium album); details: 320 g/ha, foliage application after 14-day growth, evaluated three weeks after application
Procedure, shortened: as §1

Italian ryegrass = assay: Test Example 5: herbicidal effect by foliage application, plastic box (Table 20, symbol K); assay type: in vivo, Italian ryegrass (Lolium multiflorum); details: 320 g/ha, foliage application after 14-day growth, evaluated three weeks after application
Procedure, shortened: as §1

lambsquarters [6] = assay: Test Example 4: herbicidal effect by soil treatment (Table 19, symbol O); assay type: in vivo, lambsquarters (Chenopodium album); details: amount of applied herbicide 320 g/ha
Procedure, shortened: as §3

windgrass [7] = assay: Test Example 5: herbicidal effect by foliage application, plastic box (Table 20, symbol L); assay type: in vivo, windgrass (Apera spica-venti); details: 320 g/ha, foliage application after 14-day growth, evaluated three weeks after application
Procedure, shortened: as §1

persian speedwell [8] = assay: Test Example 5: herbicidal effect by foliage application, plastic box (Table 20, symbol R); assay type: in vivo, Persian speedwell (Veronica persica); details: 320 g/ha, foliage application after 14-day growth, evaluated three weeks after application
Procedure, shortened: as §1

green foxtail = assay: Test Example 4: herbicidal effect by soil treatment (Table 19, symbol G); assay type: in vivo, green foxtail (Setaria viridis); details: amount of applied herbicide 320 g/ha
Procedure, shortened: as §3

rice flat sedge = assay: Test Example 3: herbicidal effect by foliage application, Wagner pot (Table 18, symbol E); assay type: in vivo, rice flat sedge (Cyperus iria); details: 320 g/ha
Procedure, shortened: as §2

| Structure (SMILES) | herbicidal effect on M: velvetleaf (evaluation grade 0-5) (velvetleaf [1]) | herbicidal effect on barnyard grass (H) (barnyard grass) | Herbicidal effect by soil treatment, P: chickweed (chickweed) | Herbicidal effect by soil treatment, R: persian speedwell (persian speedwell [2]) | Herbicidal effect by soil treatment, M: velvetleaf (velvetleaf [3]) | Herbicidal effect by soil treatment, L: windgrass (windgrass [4]) | herbicidal effect rating, A: late watergrass (late watergrass) | herbicidal effect on Chinese sprangletop (D) (Chinese sprangletop) | Herbicidal effect, C: oval-leafed pondweed (oval-leafed pondweed) | herbicidal effect on F: southern crabgrass (evaluation grade 0-5) (southern crabgrass) | herbicidal effect on O: lambsquarters (evaluation grade 0-5) (lambsquarters [5]) | herbicidal effect on K: Italian ryegrass (evaluation grade 0-5) (Italian ryegrass) | Herbicidal effect by soil treatment, O: lambsquarters (lambsquarters [6]) | herbicidal effect on L: windgrass (evaluation grade 0-5) (windgrass [7]) | herbicidal effect on R: persian speedwell (evaluation grade 0-5) (persian speedwell [8]) | Herbicidal effect by soil treatment, G: green foxtail (green foxtail) | herbicidal effect on rice flat sedge (E) (rice flat sedge) |
| --- | --- | --- | --- | --- | --- | --- | --- | --- | --- | --- | --- | --- | --- | --- | --- | --- | --- |
| CCCC(=O)Oc1c(C)nn(C)c(=O)c1-c1c(-c2ccc(C#N)cc2)sc2c(Cl)cccc12 [4-032] | 4 (Herbicidal rate of 70% or more and less than 90%) | 4 (Herbicidal rate of 70% or more and less than 90%) | 3 (Herbicidal rate of 40% or more and less than 70%) | 3 (Herbicidal rate of 40% or more and less than 70%) | 0 (Herbicidal rate of 5% or less (almost no effect)) | 0 (Herbicidal rate of 5% or less (almost no effect)) | 0 (Herbicidal rate of 5% or less (almost no effect)) | 3 (Herbicidal rate of 40% or more and less than 70%) | 0 (Herbicidal rate of 5% or less (almost no effect)) | 0 (Herbicidal rate of 5% or less (almost no effect)) | 3 (Herbicidal rate of 40% or more and less than 70%) | 0 (Herbicidal rate of 5% or less (almost no effect)) | 0 (Herbicidal rate of 5% or less (almost no effect)) | 4 (Herbicidal rate of 70% or more and less than 90%) | 5 (Herbicidal rate of 90% or more (almost completely withered)) | 0 (Herbicidal rate of 5% or less (almost no effect)) | 5 (Herbicidal rate of 90% or more (almost completely withered)) |
| CCCC(=O)Oc1c(C)nn(C)c(=O)c1-c1c(-c2ccc(F)cc2OCC)sc2c(Cl)cccc12 [4-036] | 5 (Herbicidal rate of 90% or more (almost completely withered)) | 5 (Herbicidal rate of 90% or more (almost completely withered)) | 2 (Herbicidal rate of 20% or more and less than 40%) | 2 (Herbicidal rate of 20% or more and less than 40%) | 2 (Herbicidal rate of 20% or more and less than 40%) | 0 (Herbicidal rate of 5% or less (almost no effect)) | 3 (Herbicidal rate of 40% or more and less than 70%) | 5 (Herbicidal rate of 90% or more (almost completely withered)) | 4 (Herbicidal rate of 70% or more and less than 90%) | 4 (Herbicidal rate of 70% or more and less than 90%) | 2 (Herbicidal rate of 20% or more and less than 40%) | 4 (Herbicidal rate of 70% or more and less than 90%) | 1 (Herbicidal rate of 5% or more and less than 20%) | 4 (Herbicidal rate of 70% or more and less than 90%) | 4 (Herbicidal rate of 70% or more and less than 90%) | 3 (Herbicidal rate of 40% or more and less than 70%) | 5 (Herbicidal rate of 90% or more (almost completely withered)) |
| CCCC(=O)Oc1c(C)nn(C)c(=O)c1-c1c(-c2ccc(C(F)(F)F)cc2)sc2c(F)cccc12 [4-045] | 4 (Herbicidal rate of 70% or more and less than 90%) | 5 (Herbicidal rate of 90% or more (almost completely withered)) | 3 (Herbicidal rate of 40% or more and less than 70%) | 3 (Herbicidal rate of 40% or more and less than 70%) | 0 (Herbicidal rate of 5% or less (almost no effect)) | 3 (Herbicidal rate of 40% or more and less than 70%) | 3 (Herbicidal rate of 40% or more and less than 70%) | 3 (Herbicidal rate of 40% or more and less than 70%) | 0 (Herbicidal rate of 5% or less (almost no effect)) | 0 (Herbicidal rate of 5% or less (almost no effect)) | 3 (Herbicidal rate of 40% or more and less than 70%) | 5 (Herbicidal rate of 90% or more (almost completely withered)) | 0 (Herbicidal rate of 5% or less (almost no effect)) | 4 (Herbicidal rate of 70% or more and less than 90%) | 5 (Herbicidal rate of 90% or more (almost completely withered)) | 0 (Herbicidal rate of 5% or less (almost no effect)) | 5 (Herbicidal rate of 90% or more (almost completely withered)) |
| CCCC(=O)Oc1c(C)nn(C)c(=O)c1-c1c(-c2ccc(C#N)cc2)sc2c(F)cccc12 [4-053] | 5 (Herbicidal rate of 90% or more (almost completely withered)) | 4 (Herbicidal rate of 70% or more and less than 90%) | 4 (Herbicidal rate of 70% or more and less than 90%) | 5 (Herbicidal rate of 90% or more (almost completely withered)) | 2 (Herbicidal rate of 20% or more and less than 40%) | 0 (Herbicidal rate of 5% or less (almost no effect)) | 4 (Herbicidal rate of 70% or more and less than 90%) | 3 (Herbicidal rate of 40% or more and less than 70%) | 2 (Herbicidal rate of 20% or more and less than 40%) | 0 (Herbicidal rate of 5% or less (almost no effect)) | 4 (Herbicidal rate of 70% or more and less than 90%) | 4 (Herbicidal rate of 70% or more and less than 90%) | 3 (Herbicidal rate of 40% or more and less than 70%) | 4 (Herbicidal rate of 70% or more and less than 90%) | 5 (Herbicidal rate of 90% or more (almost completely withered)) | 2 (Herbicidal rate of 20% or more and less than 40%) | 4 (Herbicidal rate of 70% or more and less than 90%) |
